From US8299302B2 (priority 2007, dated 2012)
Read-outs that look alike come from different tables or passages of the source. Blank lines part the entries; values can stand above or below the compound they belong to.

Tests used:
Podosphaera leucotricha = assay: Podosphaera test (apple) / protective; type: in vivo; details: 240 h, read-out: efficacy
Experimental: (§1) To produce a suitable preparation of active compound, 1 part by weight of active compound is mixed with the stated amounts of solvent and emulsifier, and the concentrate is diluted with water to the desired concentration.
(§2) To test for protective activity, young plants are sprayed with the active compound preparation at the stated application rate. After the spray coating has dried on, the plants are inoculated with an aqueous spore suspension of the apple mildew pathogen Podosphaera leucotricha. The plants are then placed in a greenhouse at about 23° C. and a relative atmospheric humidity of about 70%.
(§3) Evaluation is carried out 10 days after the inoculation. 0% means an efficacy which corresponds to that of the control, whereas an efficacy of 100% means that no infection is observed.

Puccinia recondita = assay: Puccinia test (wheat) / protective; type: in vivo; details: 240 h, read-out: efficacy
Experimental: as §1
To test for protective activity, young plants are sprayed with the active compound preparation at the stated application rate. After the spray coating has dried on, the plants are sprayed with a conidia suspension of Puccinia recondita. The plants remain in an incubation cabin at 20° C. and 100% relative atmospheric humidity for 48 hours.
The plants are then placed in a greenhouse at a temperature of about 20° C. and a relative atmospheric humidity of 80% to promote the development of rust pustules.
as §3

Uromyces appendiculatus = assay: Uromyces test (bean) / protective; type: in vivo; details: 240 h, read-out: efficacy
Experimental: as §1
To test for protective activity, young plants are sprayed with the active compound preparation at the stated application rate. After the spray coating has dried on, the plants are inoculated with an aqueous spore suspension of the bean rust pathogen Uromyces appendiculatus and then remain in an incubation cabin at about 20° C. and 100% relative atmospheric humidity for 1 day.
The plants are then placed in a greenhouse at about 21° C. and a relative atmospheric humidity of about 90%.
as §3

Sphaerotheca fuliginea = assay: Sphaerotheca test (cucumber) / protective; type: in vivo; details: Podosphaera fuliginea, 168 h, read-out: efficacy
Experimental: as §1
as §2, with “dried,” for “dried on,”, “Sphaerotheca fuliginea.” for “the apple mildew pathogen Podosphaera leucotricha.”
Evaluation is carried out 7 days after the inoculation. 0% means an efficacy which corresponds to that of the control, whereas an efficacy of 100% means that no infection is observed.

Botrytis cinerea = assay: Botrytis test (bean) / protective; type: in vivo; details: 48 h, read-out: efficacy
Experimental: as §1
To test for protective activity, young plants are sprayed with the active compound preparation at the stated application rate. After the spray coating has dried on, 2 small pieces of agar overgrown with Botrytis cinerea are placed on each leaf. The inoculated plants are then placed in a darkened chamber at about 20° C. and 100% relative atmospheric humidity.
Two days after the inoculation the size of the infected spots on the leaves is evaluated. 0% means an efficacy which corresponds to that of the control, whereas an efficacy of 100% means that no infection is observed.

[1] = apple plants, protective spray, active compound concentration 100 ppm, evaluation 10 days after inoculation
[2] = wheat plants, protective spray, active compound concentration 1000 ppm, evaluation 10 days after inoculation
[3] = bean plants, protective spray, active compound concentration 10 ppm, evaluation 10 days after inoculation
[4] = cucumber plants, protective spray, active compound concentration 100 ppm, evaluation 7 days after inoculation
[5] = bean plants, protective spray, active compound concentration 250 ppm, evaluation two days after inoculation

Compound: 4-[(4′-fluorobiphenyl-4-yl)oxy]-2,5-dimethyl-N-[(1E)-pyrrolidin-1-ylmethylene]aniline [Compound 30]
logP acidic (logP (acidic, pH 2.3); acidic): 2.62

logP (logP (acidic, pH 2.3); pH 2.3, log P (pH 2.3), pH 2.3): 2.88
Compound: Cc1cc(Oc2ccc(Br)cc2)c(C)cc1N [4-(4-Bromophenoxy)-2,5-dimethylaniline]

logP (logP (acidic, pH 2.3); pH 2.3, log P (pH 2.3), pH 2.3): 4.25
Compound: Cc1cc(Oc2ccc(C3CCCCC3)cc2)c(C)cc1N [4-(4-Cyclohexylphenoxy)-2,5-dimethylaniline]

logP (logP (acidic, pH 2.3); pH 2.3, log P (pH 2.3), pH 2.3): 3.06
Compound: COc1ccc(-c2ccc(Oc3cc(C)c(N)cc3C)cc2)cc1 [4-[4-(4-Methoxyphenyl)phenoxy]-2,5-dimethylaniline]

logP (logP (acidic, pH 2.3); pH 2.3, logP acidic, acidic): 2.95
Compound: CCN(C)C=Nc1cc(C)c(Oc2ccc(-c3ccc(Cl)cc3)cc2)cc1C [Compound 1, N′-{4-[(4′-chlorobiphenyl-4-yl)oxy]-2,5-dimethylphenyl}-N-ethyl-N-methylimidoformamide]
pest or weed control at 100 ppm (Podosphaera leucotricha; [1]): ≥ 70%
pest or weed control at 1000 ppm (Puccinia recondita; [2]): ≥ 70%
pest or weed control at 10 ppm (Uromyces appendiculatus; [3]): ≥ 70%
pest or weed control at 100 ppm (Sphaerotheca fuliginea; [4]): ≥ 70%
pest or weed control at 250 ppm (Botrytis cinerea; [5]): ≥ 70%

logP (logP (acidic, pH 2.3); pH 2.3, logP acidic, acidic): 2.06
Compound: CCN(C)C=Nc1cc(C)c(Oc2ccc(-c3ccc(S(=O)(=O)CC)cc3)cc2)cc1C [Compound 2, N-ethyl-N′-(4-{[4′-(ethylsulfonyl)biphenyl-4-yl]oxy}-2,5-dimethylphenyl)-N-methylimidoformamide]
pest or weed control at 100 ppm (Podosphaera leucotricha; [1]): ≥ 70%
pest or weed control at 1000 ppm (Puccinia recondita; [2]): ≥ 70%
pest or weed control at 10 ppm (Uromyces appendiculatus; [3]): ≥ 70%
pest or weed control at 100 ppm (Sphaerotheca fuliginea; [4]): ≥ 70%

logP (logP (acidic, pH 2.3); pH 2.3, logP acidic, acidic): 2.94
Compound: CCN(C)C=Nc1cc(C)c(Oc2ccc(-c3ccc(C(F)(F)F)cc3)cc2)cc1C [Compound 3, N′-(2,5-dimethyl-4-{[4′-(trifluoromethyl)biphenyl-4-yl]oxy}phenyl)-N-ethyl-N-methylimidoformamide]
pest or weed control at 100 ppm (Podosphaera leucotricha; [1]): ≥ 70%
pest or weed control at 1000 ppm (Puccinia recondita; [2]): ≥ 70%
pest or weed control at 100 ppm (Sphaerotheca fuliginea; [4]): ≥ 70%
pest or weed control at 250 ppm (Botrytis cinerea; [5]): ≥ 70%

logP (logP (acidic, pH 2.3); pH 2.3, logP acidic, acidic): 2.13
Compound: CCN(C)C=Nc1cc(C)c(Oc2ccc(-c3ccc(N(C)C)cc3)cc2)cc1C [Compound 4, N′-(4-{[4′-(dimethylamino)biphenyl-4-yl]oxy}-2,5-dimethylphenyl)-N-ethyl-N-methylimidoformamide]

logP (logP (acidic, pH 2.3); pH 2.3, logP acidic, acidic): 3.41
Compound: CCN(C)C=Nc1cc(C)c(Oc2ccc(-c3ccc(C(C)(C)C)cc3)cc2)cc1C [Compound 7, N′-(2,5-dimethyl-4-{[4′-(tert-butyl)biphenyl-4-yl]oxy}phenyl)-N-ethyl-N-methylimidoformamide]
pest or weed control at 100 ppm (Podosphaera leucotricha; [1]): ≥ 70%
pest or weed control at 100 ppm (Sphaerotheca fuliginea; [4]): ≥ 70%
pest or weed control at 250 ppm (Botrytis cinerea; [5]): ≥ 70%

logP (logP (acidic, pH 2.3); pH 2.3, logP acidic, acidic): 2.32
Compound: CCN(C)C=Nc1cc(C)c(Oc2ccc(-c3ccc(C(C)=O)cc3)cc2)cc1C [Compound 8, N′-{4-[(4′-acetylbiphenyl-4-yl)oxy]-2,5-dimethylphenyl}-N-ethyl-N-methylimidoformamide]
pest or weed control at 100 ppm (Podosphaera leucotricha; [1]): ≥ 70%
pest or weed control at 10 ppm (Uromyces appendiculatus; [3]): ≥ 70%
pest or weed control at 100 ppm (Sphaerotheca fuliginea; [4]): ≥ 70%

Compound: CCCCO/N=C/c1ccc(-c2ccc(Oc3cc(C)c(N=CN(C)CC)cc3C)cc2)cc1 [Compound 10]
logP (logP (acidic, pH 2.3); pH 2.3): 3.51

Compound: CCN(C)C=Nc1cc(C)c(Oc2ccc(-c3ccc(/C=N/OC)cc3)cc2)cc1C [Compound 12]
logP (logP (acidic, pH 2.3); pH 2.3): 2.75

Compound: CCN(C)C=Nc1cc(C)c(Oc2ccc(-c3ccccc3C(F)(F)F)cc2)cc1C [Compound 14]
logP (logP (acidic, pH 2.3); pH 2.3): 2.77
pest or weed control at 100 ppm (Podosphaera leucotricha): ≥ 70%
pest or weed control at 1000 ppm (Puccinia recondita): ≥ 70%
pest or weed control at 100 ppm (Sphaerotheca fuliginea): ≥ 70%
pest or weed control at 250 ppm (Botrytis cinerea): ≥ 70%

Compound: CCN(C)C=Nc1cc(C)c(Oc2ccc(-c3ccccc3C(C)C)cc2)cc1C [Compound 15]
logP (logP (acidic, pH 2.3); pH 2.3): 3.06
pest or weed control at 100 ppm (Podosphaera leucotricha): ≥ 70%
pest or weed control at 1000 ppm (Puccinia recondita): ≥ 70%
pest or weed control at 100 ppm (Sphaerotheca fuliginea): ≥ 70%
pest or weed control at 250 ppm (Botrytis cinerea): ≥ 70%

Compound: CCN(C)C=Nc1cc(C)c(Oc2ccc(-c3ccccc3OC)cc2)cc1C [Compound 19]
logP (logP (acidic, pH 2.3); pH 2.3): 2.49
pest or weed control at 1000 ppm (Puccinia recondita): ≥ 70%
pest or weed control at 10 ppm (Uromyces appendiculatus): ≥ 70%
pest or weed control at 100 ppm (Sphaerotheca fuliginea): ≥ 70%
pest or weed control at 250 ppm (Botrytis cinerea): ≥ 70%

Compound: Cc1cc(Oc2ccc(-c3ccccc3C(F)(F)F)cc2)c(C)cc1/N=C/N1CCCCC1 [Compound 20]
logP (logP (acidic, pH 2.3); pH 2.3): 2.93
pest or weed control at 100 ppm (Podosphaera leucotricha): ≥ 70%
pest or weed control at 1000 ppm (Puccinia recondita): ≥ 70%
pest or weed control at 100 ppm (Sphaerotheca fuliginea): ≥ 70%
pest or weed control at 250 ppm (Botrytis cinerea): ≥ 70%

Compound: Cc1cc(Oc2ccc(-c3ccccc3F)cc2)c(C)cc1/N=C/N1CCCCC1 [Compound 21]
logP (logP (acidic, pH 2.3); pH 2.3): 2.98
pest or weed control at 1000 ppm (Puccinia recondita): ≥ 70%

Compound: CC(=O)c1ccccc1-c1ccc(Oc2cc(C)c(/N=C/N3CCCCC3)cc2C)cc1 [Compound 22]
logP (logP (acidic, pH 2.3); pH 2.3): 3.52
pest or weed control at 100 ppm (Podosphaera leucotricha): ≥ 70%
pest or weed control at 100 ppm (Sphaerotheca fuliginea): ≥ 70%
pest or weed control at 250 ppm (Botrytis cinerea): ≥ 70%

Compound: CCc1ccccc1-c1ccc(Oc2cc(C)c(/N=C/N3CCCCC3)cc2C)cc1 [Compound 23]
logP (logP (acidic, pH 2.3); pH 2.3): 3.34
pest or weed control at 100 ppm (Podosphaera leucotricha): ≥ 70%
pest or weed control at 1000 ppm (Puccinia recondita): ≥ 70%
pest or weed control at 100 ppm (Sphaerotheca fuliginea): ≥ 70%
pest or weed control at 250 ppm (Botrytis cinerea): ≥ 70%

Compound: Cc1cc(Oc2ccc(-c3ccccc3C)cc2)c(C)cc1/N=C/N1CCCCC1 [Compound 24]
logP (logP (acidic, pH 2.3); pH 2.3): 3.22
pest or weed control at 100 ppm (Podosphaera leucotricha): ≥ 70%
pest or weed control at 1000 ppm (Puccinia recondita): ≥ 70%
pest or weed control at 100 ppm (Sphaerotheca fuliginea): ≥ 70%
pest or weed control at 250 ppm (Botrytis cinerea): ≥ 70%

Compound: Cc1cc(Oc2ccc(-c3ccccc3C(C)C)cc2)c(C)cc1/N=C/N1CCCCC1 [Compound 25]
logP (logP (acidic, pH 2.3); pH 2.3): 2.46
pest or weed control at 100 ppm (Podosphaera leucotricha): ≥ 70%
pest or weed control at 10 ppm (Uromyces appendiculatus): ≥ 70%
pest or weed control at 100 ppm (Sphaerotheca fuliginea): ≥ 70%
pest or weed control at 250 ppm (Botrytis cinerea): ≥ 70%

Compound: Cc1cc(Oc2ccc(-c3ccccc3Cl)cc2)c(C)cc1/N=C/N1CCCCC1 [Compound 26]
logP (logP (acidic, pH 2.3); pH 2.3): 2.77
pest or weed control at 100 ppm (Podosphaera leucotricha): ≥ 70%
pest or weed control at 1000 ppm (Puccinia recondita): ≥ 70%
pest or weed control at 100 ppm (Sphaerotheca fuliginea): ≥ 70%
pest or weed control at 250 ppm (Botrytis cinerea): ≥ 70%

Compound: Cc1cc(Oc2ccc(-c3ccccc3OCC(C)C)cc2)c(C)cc1/N=C/N1CCCCC1 [Compound 28, 4-[(2′-isobutoxybiphenyl-4-yl)oxy]-2,5-dimethyl-N-[(1E)-piperidin-1-ylmethylene]aniline]
logP (logP (acidic, pH 2.3); pH 2.3, logP acidic, acidic): 3.44

Compound: CCN(C)C=Nc1cc(C)c(Oc2ccc(-c3ccccc3OCC(C)C)cc2)cc1C [Compound 29, N-ethyl-N′-{4-[(2′-isobutoxybiphenyl-4-yl)oxy]-2,5-dimethylphenyl}-N-methylimidoformamide]
logP (logP (acidic, pH 2.3); pH 2.3, logP acidic, acidic): 3.14

logP (logP (acidic, pH 2.3); pH 2.3, logP acidic, acidic): 2.64
Compound: CCN(C)C=Nc1cc(C)c(Oc2ccc(-c3ccccc3)cc2)cc1C [Compound 31, N′-[4-(biphenyl-4-yloxy)-2,5-dimethylphenyl]-N-ethyl-N-methylimidoformamide]

logP (logP (acidic, pH 2.3); pH 2.3, logP acidic, acidic): 3.22
Compound: Cc1cc(Oc2ccc(C3CCCC3)cc2)c(C)cc1/N=C/N1CCCCC1C (stereo not shown) [Compound 34, 4-(4-cyclopentylphenoxy)-2,5-dimethyl-N-[(1E)-(2-methylpiperidin-1-yl)methylene]aniline]
pest or weed control at 1000 ppm (Puccinia recondita; [2]): ≥ 70%

logP (logP (acidic, pH 2.3); pH 2.3, logP acidic, acidic): 3.13
Compound: Cc1cc(Oc2ccc(C3CCCC3)cc2)c(C)cc1/N=C/N1CCCCC1 [Compound 35, 4-(4-cyclopentylphenoxy)-2,5-dimethyl-N-[(1E)-piperidin-1-ylmethylene]aniline]
pest or weed control at 1000 ppm (Puccinia recondita; [2]): ≥ 70%
pest or weed control at 10 ppm (Uromyces appendiculatus; [3]): ≥ 70%
pest or weed control at 100 ppm (Sphaerotheca fuliginea; [4]): ≥ 70%
pest or weed control at 250 ppm (Botrytis cinerea; [5]): ≥ 70%

logP (logP (acidic, pH 2.3); pH 2.3, logP acidic, acidic): 3.2
Compound: Cc1cc(Oc2ccc(C3CCCCC3)cc2)c(C)cc1N=CN(C)C(C)C [Compound 39, N′-{4-[4-cyclohexyl-phenoxy]-2,5-dimethylphenyl}-N-isopropyl-N-methylimidoformamide]
